Values quoted from earlier work, collected in publication PMC3466449 (Scientific Reports, 2012).
Non-standard residues stand in square brackets, D forms with d. No end group written: not given here. pGlu = O=C1CC[C@@H](C(=O)O)N1

Tested on: C-domain of sACE
Conditions: C-domain over N-domain of sACE

[pGlu]GLPPRPKIPP [BPPb, bradykinin potentiating peptide b]
C-domain selectivity: about 260 fold

O=C(N[C@@H](Cc1ccccc1)P(=O)(O)C1CCCC1C(=O)N[C@@H](Cc1c[nH]c2ccccc12)C(=O)O)OCc1ccccc1 (some centres unmarked) [RXPA380]
C-domain selectivity: approximately 3000 fold
